The nature of series [1]: Storage stability of pseudopolymorphic forms (XRPD after storage). The following applies: 25° C./60% and 40° C./75% relative humidity; listed as monohydrate I. In kind it is physicochemical.
The test system of series [2] is hypoxia induced PAP increase in conscious dogs. Nature of the series: Haemodynamics in conscious hypoxia challenged dogs (C-2.2). It is filed as in vivo, dog. Set-up: PAP, absolute values for each animal: unit: mmHg. The following applies: for mPAP decrease during Hypoxia, each animal / mPAP decrease during Hypoxia, mean +/− SEM: n = 3. On the procedure:
Experiments were carried out in anesthetized Göttingen minipigs, anesthetized rats and conscious, telemetrically instrumented dogs. Acute pulmonary hypertension was induced for example by infusion of a thromboxane A2 analogon, by acute hypoxia treatment or hypoxia treatment over a number of weeks and/or by administration of monocrotaline. Test substances were applied via nebulization using the Nebutec® or Aeroneb® Pro nebulizer system, and/or by means of powder and/or solution applicators for experimental intratracheal administration (Liquid MicroSprayer®, Dry Powder Insufflator™, MicroSprayer®, Penn-Century Inc., Wyndmoor, PA, USA) or after solid nebulization inserted into the inspiration arm of the ventilation. Compounds were employed as solids or solutions depending on the molecular structure and the technical possibility depending on the experiment. The haemodynamic signals were recorded and evaluated by means of pressure transducers/amplifiers (Combitransducer B. Braun, Melsungen, Germany or CardioMEMS Inc., Atlanta, GA, USA) and Ponemah® or CardioMems® as data aquisition software. After long-term experiments (for example monocrotaline rat), it is also possible to carry out a histological evaluation.
We evaluated the lung-selectivity and duration of effects of comparative example 11 under conscious conditions, in another species, and under a more physiological stimulus for PAP increase. Dogs were exposed to hypoxia for 30 minutes to induce a hypoxia-mediated PAP increase and comparative example 11 (100 μg/kg nominal dose) was applied by inhalation 1, 5, 12, 16 and 24 hours before hypoxia.
The hypoxic dog model was also used to compare different drug candidates wrt duration of action under conscious conditions.

[3] abbreviates: 100 μg/kg nominal dose inhaled, 1-2 h post inhalation.
[4] abbreviates: 100 μg/kg nominal dose inhaled, 5-6 h post inhalation.
The mark [5] stands for this setting: 100 μg/kg nominal dose inhaled, 12-13 h post inhalation.
Setting [6] is: 100 μg/kg nominal dose inhaled, 16-17 h post inhalation.
[7] abbreviates: 100 μg/kg nominal dose inhaled, 24-25 h post inhalation.

Where “and” joins values, the source holds several entries; their conditions need not be identical. Equal values may be shown once.

In the case of `O=C(O)c1ccc(CCN(CCc2ccccc2OCc2ccc(-c3ccc(C(F)(F)F)cc3)cc2Cl)[C@H]2CCCc3nc(C(=O)O)ccc32)cc1` [example 4, (5S)-{[2-(4-Carboxyphenyl)ethyl][2-(2-{[3-chloro-4′-(trifluoromethyl)biphenyl-4-yl]methoxy}phenyl)-ethyl]amino}-5,6,7,8-tetrahydroquinoline-2-carboxylic acid], in series [1], the “storage stability of the form” value is on record as “stable”.

`O=C(O)c1ccc(CCN(CCc2cc(F)ccc2OCc2ccc(-c3nc4cc(Cl)ccc4o3)cc2)C2CCCc3nc(C(=O)O)ccc32)cc1` (single isomer, unassigned) [comparative example 4, 5-{[2-(4-Carboxyphenyl)ethyl][2-(2-{[4-(5-chloro-1,3-benzoxazol-2-yl)benzyl]oxy}-5-fluorophenyl)-ethyl]amino}-5,6,7,8-tetrahydroquinoline-2-carboxylic acid]: the “PAP, absolute values for each animal” value in series [2] (100 μg/kg nominal dose inhaled 1 h before hypoxia, time 4 min) was 9 and 15 and 10; in series [2] (100 μg/kg nominal dose inhaled 1 h before hypoxia, time 6 min), 9 and 14 and 11; in series [2] (100 μg/kg nominal dose inhaled 1 h before hypoxia, time 8 min) it was 10 and 14 and 11; in series [2] (100 μg/kg nominal dose inhaled 16 h before hypoxia, time 22 min), 23 and 26 and 13; in series [2] (100 μg/kg nominal dose inhaled 16 h before hypoxia, time 24 min), 23 and 26 and 14; in series [2] (100 μg/kg nominal dose inhaled 16 h before hypoxia, time 26 min), 21 and 32 and 15. For the same molecule, the “PAP, absolute values for each animal” value in series [2] (100 μg/kg nominal dose inhaled 16 h before hypoxia, time 28 min) was 22 and 29 and 17; in series [2] (100 μg/kg nominal dose inhaled 16 h before hypoxia, time 30 min), 26 and 31 and 18; in series [2] (100 μg/kg nominal dose inhaled 16 h before hypoxia, time 32 min) it was 24 and 29 and 16; in series [2] (100 μg/kg nominal dose inhaled 16 h before hypoxia, time 34 min) it was 23 and 32 and 21; in series [2] (100 μg/kg nominal dose inhaled 16 h before hypoxia, time 36 min), 20 and 29 and 19; in series [2] (100 μg/kg nominal dose inhaled 16 h before hypoxia, time 38 min), 25 and 29 and 12. Besides, the “PAP, absolute values for each animal” value in series [2] (100 μg/kg nominal dose inhaled 16 h before hypoxia, time 40 min) was 25 and 30 and 22; in series [2] (100 μg/kg nominal dose inhaled 16 h before hypoxia, time 42 min), 12 and 21 and 8; in series [2] (100 μg/kg nominal dose inhaled 16 h before hypoxia, time 44 min), 9 and 17 and 7; in series [2] (100 μg/kg nominal dose inhaled 16 h before hypoxia, time 46 min), 9 and 16 and 8; in series [2] (100 μg/kg nominal dose inhaled 16 h before hypoxia, time 48 min), 6 and 16 and 8; in series [2] (100 μg/kg nominal dose inhaled 16 h before hypoxia, time 50 min), 6 (2×) and 15. Also, the “PAP, absolute values for each animal” value is 10 and 16 and 15 in series [2] (100 μg/kg nominal dose inhaled 24 h before hypoxia, time 0 min); 12 and 16 and 17 in series [2] (100 μg/kg nominal dose inhaled 24 h before hypoxia, time 2 min); 10 and 15 and 16 in series [2] (100 μg/kg nominal dose inhaled 24 h before hypoxia, time 4 min); 10 and 13 and 14 in series [2] (100 μg/kg nominal dose inhaled 24 h before hypoxia, time 6 min); 9 and 14 and 12 in series [2] (100 μg/kg nominal dose inhaled 24 h before hypoxia, time 8 min); 10 and 15 and 14 in series [2] (100 μg/kg nominal dose inhaled 24 h before hypoxia, time 10 min). Moreover, the “PAP, absolute values for each animal” value was 18 and 22 and 14 in series [2] (100 μg/kg nominal dose inhaled 24 h before hypoxia, time 12 min); 18 and 19 and 15 in series [2] (100 μg/kg nominal dose inhaled 24 h before hypoxia, time 14 min); 20 and 23 and 17 in series [2] (100 μg/kg nominal dose inhaled 24 h before hypoxia, time 16 min); 23 and 25 and 17 in series [2] (100 μg/kg nominal dose inhaled 24 h before hypoxia, time 18 min); 23 and 24 and 21 in series [2] (100 μg/kg nominal dose inhaled 24 h before hypoxia, time 20 min); 22 and 26 and 17 in series [2] (100 μg/kg nominal dose inhaled 24 h before hypoxia, time 22 min). The “PAP, absolute values for each animal” value in series [2] (100 μg/kg nominal dose inhaled 24 h before hypoxia, time 24 min) is 24 and 25 and 18; in series [2] (100 μg/kg nominal dose inhaled 24 h before hypoxia, time 26 min), 23 and 25 and 19; in series [2] (100 μg/kg nominal dose inhaled 24 h before hypoxia, time 28 min) it was 22 and 27 and 18; in series [2] (100 μg/kg nominal dose inhaled 24 h before hypoxia, time 30 min) it was 23. In addition, the “efficacy (PAP decrease), head to head” value in series [2] (100 μg/kg nominal dose inhaled, up to 6 hrs after inhalation) is recorded as “comparable efficacy”. Further, the “mPAP decrease during Hypoxia, each animal” value is −11.69 mmHg and −10.19 mmHg and −11.38 mmHg in series [2] (setting [3]); −14.81 mmHg and −6.69 mmHg and −8.00 mmHg in series [2] (setting [4]); −0.50 mmHg and −4.63 mmHg and −0.56 mmHg in series [2] (setting [5]); 0.81 mmHg and −0.56 mmHg and −1.06 mmHg in series [2] (setting [6]); −2.56 mmHg and −3.13 mmHg and −2.25 mmHg in series [2] (setting [7]). Moreover, the “mPAP decrease during Hypoxia, mean +/− SEM” value in series [2] (setting [3]) is −11.08 ± 0.46 mmHg; in series [2] (setting [4]) it was −9.83 ± 2.52 mmHg; in series [2] (setting [5]) it was −1.90 ± 1.36 mmHg; in series [2] (setting [6]), −0.27 ± 0.56 mmHg; in series [2] (setting [7]), −2.65 ± 0.26 mmHg.

For the origin of these results see patent US12138256B2, “Treatment of cardiopulmonary disorders” (Bayer Aktiengesellschaft, priority 2021, dated 2024).
